System: HEK-CMV-Luc2-Hygro cells
Test: High-throughput genome-wide siRNA screen and validation screen for luciferase expression
Assay type: cell-based, human
Conditions: for Viable cell density (%) / per cell luciferase yield (%): Table 4, negative control = 100%; for Viable cell density (%) / per cell luciferase yield (%) / per_cell / VIA: primary screen, 72 h; for per_cell / VIA: Table 3; for per_cell: per cell luciferase yield relative to negative control; for VIA: viable cell density as % of negative control; for Luciferase activity (%) / Per cell luciferase yield (%) / Viable cell number (%): Table 6, polyamine pathway gene siRNAs
Procedure: The Silencer Select™ Human genome siRNA library (Ambion), which targets 21,585 human genes with 3 siRNAs per gene, was used for screening. Each siRNA is arrayed in an individual well (Corning 3570, 384 well, white, solid bottom plates). The transfection was done in duplicates: 0.8 pmol of each siRNA was spotted to a well of a 384-well plate (Corning) and 20 μL of serum-free DMEM containing 0.07 μL of Lipofectamine™ RNAiMax (Life Technologies) was then added to each well. This lipid-siRNA mixture was incubated at ambient temperature for 30 min prior to addition of 4000 cells in 20 μL of DMEM containing 20% FBS (Gibco). After incubating the transfected cells at 37° C. in 5% CO2 for 72 hours, 20 μL of ONE-Glo™ Reagent (Promega) was added to one set of replicates for ‘overall luciferase yield’ quantification and 20 μL of CellTiter-Glo™ Reagent (Promega) was added to the second set of replicates for ‘viable cell density’ measurement. All plates were incubated at room temperature for 20 minutes to stabilize the luminescent signal and the signal was then measured with PerkinElmer Envision 2104 Multilabel™ plate reader.
The 56 genes which got targeted by at least two independent siRNAs (out of three) resulting in enhanced luciferase production with MAD-based z-score>3 from the primary screen were subjected to validation screen using 3 additional Silencer™ siRNAs (Ambion) with different sequences from those used in the primary screen. […] The transfection and assay processes were-the same as the primary genome-wide screen. Data visualization was performed in R computational environment (available on the World Wide Web at R-project.org/) by using ‘hexbin’ and ‘ggplot2’ packages.
The screen generated end-point data for ‘overall luciferase yield’ and ‘viable cell density’ in each well. For each plate, the median value of the negative control wells was set as 100% and was used to normalize corresponding sample wells. The ‘overall luciferase yield’ and ‘viable cell density’ were exported as % of negative control and the median absolute deviation (MAD)-based z-score was calculated for each sample.

Substance	Viable cell density (%)	per cell luciferase yield (%)	also measured
126 (GGUGCUCUCGGUUGCACAATT; chemistry not given here; listed as Homo sapiens) [compound 126]	82.333%	187.362%	
50 (GGAGGAAUCUCGAAUGCGATT; chemistry not given here; listed as Homo sapiens) [compound 50]			per_cell: 173.3; VIA: 96
149 (CGACCAUCAUGGAAAACAUTT; chemistry not given here; listed as Homo sapiens) [compound 149]	57.472%	294.800%	
99 (CCCGGAUACUUCUGAAGAATT; chemistry not given here; listed as Homo sapiens) [compound 99]	75.879%	227.884%	
162 (CGAUAUGCUUUUCUACGUUTT; chemistry not given here; listed as Homo sapiens) [compound 162]	76.131%	235.013%	
224 (GCAUGUAUCUGCUUGAUAUTT; chemistry not given here; listed as Homo sapiens) [compound 224]			Luciferase activity (%): 20.0%; Per cell luciferase yield (%): 39.4%; Viable cell number (%): 50.7%
98 (CAACGGGACUAUUAUGAUATT; chemistry not given here; listed as Homo sapiens) [compound 98]	97.392%	163.496%	
147 (GUUUCGACCUCGAUCCAGATT; chemistry not given here; listed as Homo sapiens) [compound 147]	61.490%	256.085%	
227 (CGAUGAACAUGUUAGACAUTT; chemistry not given here; listed as Homo sapiens) [compound 227]			Luciferase activity (%): 30.4%; Per cell luciferase yield (%): 42.2%; Viable cell number (%): 72.1%
100 (GAACGAGUACAGCAAUAUATT; chemistry not given here; listed as Homo sapiens) [compound 100]	108.214%	140.868%	
93 (CAGCCUCACCAAGCACAAATT; chemistry not given here; listed as Homo sapiens) [compound 93]			per_cell: 167.4; VIA: 85.87
49 (CGAAACUUGUCAACGGGAATT; chemistry not given here; listed as Homo sapiens) [compound 49]			per_cell: 179.2; VIA: 104.6
164 (GCAGGCACAUGGUUCCUCUTT; chemistry not given here; listed as Homo sapiens) [compound 164]	83.512%	259.478%	
186 (CGAAACUUGUCAACGGGAATT; chemistry not given here; listed as Homo sapiens) [compound 186]	104.553%	179.207%	
86 (CAUUGGUUUUGAUGAGUAUTT; chemistry not given here; listed as Homo sapiens) [compound 86]			per_cell: 226.7; VIA: 64.38
83 (GCGGAAAAGGUAUCCCUCATT; chemistry not given here; listed as Homo sapiens) [compound 83]			per_cell: 184.6; VIA: 80.17
43 (GCUAAGUCUUUUCCACAGUTT; chemistry not given here; listed as Homo sapiens) [compound 43]			per_cell: 155.4; VIA: 94.54

Substance	Viable cell density (%)	per cell luciferase yield (%)	also measured
191 (GCCCACUAUUCUCAGCUCATT; chemistry not given here; listed as Homo sapiens) [compound 191]	66.121%	214.156%	
167 (CCUGGACAGUUUGAAGCAATT; chemistry not given here; listed as Homo sapiens) [compound 167]	88.009%	174.946%	
41 (CAACAGUACUUACCGAUGUTT; chemistry not given here; listed as Homo sapiens) [compound 41]			per_cell: 141.8; VIA: 115.5
189 (GAACAAAAUAGACCUCUUATT; chemistry not given here; listed as Homo sapiens) [compound 189]	101.897%	162.677%	
151 (GAAACUGCAUGAGAAGACATT; chemistry not given here; listed as Homo sapiens) [compound 151]	59.084%	288.857%	
177 (CUCUUAUGGUAACCAAUGATT; chemistry not given here; listed as Homo sapiens) [compound 177]	91.558%	160.246%	
204 (CUCCCGCAGUUGAACAUCATT; chemistry not given here; listed as Homo sapiens) [compound 204]	109.377%	136.174%	
183 (CAACAGAUCAGAGAACAAATT; chemistry not given here; listed as Homo sapiens) [compound 183]	92.429%	156.418%	
201 (CCCUGAAGGUUACCUCUUUTT; chemistry not given here; listed as Homo sapiens) [compound 201]	63.690%	273.535%	
146 (GACCUAUACUCAUUCUGCATT; chemistry not given here; listed as Homo sapiens) [compound 146]	83.351%	171.308%	
88 (GAGCAGAGAUCAUAACCAATT; chemistry not given here; listed as Homo sapiens) [compound 88]			per_cell: 141.1; VIA: 108.2
190 (CUGUGGAAAAGAUACCGUATT; chemistry not given here; listed as Homo sapiens) [compound 190]	95.368%	152.850%	
194 (CAUCAAGCCCUGUAAGUCUTT; chemistry not given here; listed as Homo sapiens) [compound 194]	89.583%	163.431%	
168 (GCUUCCUCUUGGACCUCAATT; chemistry not given here; listed as Homo sapiens) [compound 168]	78.156%	185.175%	
54 (GCAUCUGUCCGAUCGCUCUTT; chemistry not given here; listed as Homo sapiens) [compound 54]			per_cell: 143.9; VIA: 105.5
179 (GUACCUGCGGGAUUACUCATT; chemistry not given here; listed as Homo sapiens) [compound 179]	90.987%	160.687%	
105 (GCGCAAGCUUAAGAACUUUTT; chemistry not given here; listed as Homo sapiens) [compound 105]	94.579%	170.349%	

— patent US20160319277A1, “METHODS OF IMPROVED PROTEIN PRODUCTION USING MIRNAs AND SIRNAs” (THE JOHNS HOPKINS UNIVERSITY, priority 2015, published 2016)
